Measurements: patent US9404082B2, “Method for production of eosinophil from pluripotent stem cell” (KYOTO UNIVERSITY, priority 2010, dated 2016)

Test system: ES cell (H1)-derived eosinophils
Experiment: Measurement of migratory capacity (Transwell)
Type: cell-based, human
Conditions: 1640 medium with 5% FBS, 1 to 2 hours, IL-5 0.2-25 ng/ml, Eotaxin 0.4-250 nM, fMLP 10 pM-100 nM, FIG. 3
Description: Eosinophils established from ES cells (H1) by the above method were transferred to Transwell, and 1640 medium supplemented with 5% FBS was added thereto. IL-5 (0.2 ng/ml to 25 ng/ml), Eotaxin (0.4 nM to 250 nM) and fMLP (10 pM to 100 nM) at various concentrations were added thereto, and culture was performed for 1 to 2 hours. Thereafter, the number of cells migrated from the top layer to the bottom layer was measured (FIG. 3).

Row | Substance | number of cells migrated from the top layer to the bottom layer
1 | Eotaxin: cytokine used to stimulate eosinophil migration | migrate in response to the respective types of stimulation
2 | IL-5: cytokine used to stimulate eosinophil migration | migrate in response to the respective types of stimulation
3 | fMLP | migrate in response to the respective types of stimulation
